Experiment [1] concerns adult patients diagnosed with highly active, non-cirrhotic NASH. The experiment in a line: NATIVE phase 2b trial of lanifibranor, liver histology response at Week 24. The class given is in vivo, human. The settings on record: once daily orally, 24 weeks. From the text:
Patients were eligible for inclusion if they were 18 years of age or older and had non-cirrhotic NASH (the diagnosis of which required a Steatosis, Activity, Fibrosis [SAF] grade of 1 or higher for steatosis, hepatocellular ballooning and lobular inflammation on liver biopsy). A score of 3 or higher on the SAF-A (the activity part of the SAF scoring system that incorporates the scores for hepatocellular ballooning and lobular inflammation) was also a criterion for eligibility. Patients with stage F4 fibrosis, classified according to the criteria of both the SAF and NASH Clinical Research Network (NASH CRN) were excluded from the study. Patients were randomly assigned in a 1:1:1 ratio to receive 800 or 1200 mg lanifibranor or placebo once daily for 24 weeks. Liver biopsy was obtained at baseline and at the end of treatment. The primary end point of the NATIVE study was defined as a decrease of at least 2 points from baseline to Week 24 (end of treatment) in the SAF-A score and no worsening of fibrosis. Secondary histologic end points included resolution of NASH (defined as a ballooning grade of 0 and a lobular inflammation grade of ≤1) and no worsening of fibrosis; improvement in fibrosis of at least 1 stage and no worsening of NASH (i.e., no worsening in either steatosis, ballooning, or lobular inflammation); Nonalcoholic Fatty Liver Disease Activity Score (NAS) improvement (defined as a decrease of ≥2 points from baseline to week 24 in the NAS) and no worsening of fibrosis; resolution of NASH and an improvement in fibrosis stage of at least 1 (as a composite end point); change in scores for the components of the SAF and NASH CRN scoring system (steatosis, activity, inflammation, ballooning, and fibrosis); and change in the modified Ishak score. Non-histologic secondary endpoints included changes in a panel of serum biomarkers related to metabolism, inflammation tissue injury and fibrosis. Patients receiving lanifibranor 800 or 1200 mg per day were pooled and those with pre- and post-treatment liver biopsies were selected (n=142). Post-treatment biopsies were considered if they occurred within 14 days following last lanifibranor intake. The following histological endpoint according to NASH-CRN criteria was considered: NASH resolution without worsening of fibrosis (E2). In the NATIVE trial, from February 2017 through July 2019, 247 patients were randomly assigned to receive 1200 mg of lanifibranor (N=83), 800 mg of lanifibranor (N=83), or placebo (N=81) orally once daily for 6 months. A total of 228 patients completed the trial, 77 in each lanifibranor group and 74 in the placebo group. Reasons for discontinuation of the trial regimen have been reported elsewhere. Finally, among the 154 patients treated with lanifibranor at both doses, 142 patients (N=70 and N=72 patients treated with 800 or 1200 mg per day, respectively) presented with pre- and post-treatment liver biopsies within the time frame required for the present work and were included in the analysis population for signature development.

Experiment [2] shares this test system. The settings on record: background statement, cited from earlier work.
Setting [3] is: 800 and 1200 mg per day pooled, analysis population N=142.

Here are results for one molecule from patent publication US20240410904A1, “NON-INVASIVE MONITORING OF LIVER DISEASE TREATMENT” (INVENTIVA, priority 2023, published 2024).

SMILES strings stand for the structures.

Regarding `O=C(O)CCCc1cc2cc(Cl)ccc2n1S(=O)(=O)c1ccc2ncsc2c1` [lanifibranor, 4-[1-(1,3-benzothiazol-6-ylsulfonyl)-5-chloroindol-2-yl]butanoic acid], the “Resolution of NASH without worsening of liver fibrosis (E2), number of patients” value in experiment [1] (800 mg per day, N=70) was 27 patients; in experiment [1] (1200 mg per day, N=72), 36 patients; in experiment [1] (setting [3]), 63 patients. The “Resolution of NASH without worsening of liver fibrosis (E2), percentage of patients” value is 39% in experiment [1] (800 mg per day, N=70); 50% in experiment [1] (1200 mg per day, N=72); 44% in experiment [1] (setting [3]). The “Percentage of patients with a decrease of at least 2 points in the SAF-A score without worsening of fibrosis, compared to placebo” value in experiment [2] (daily dose of 1200 mg, patients with active NASH) is “significantly higher”. Moreover, the “Secondary endpoints (NASH resolution and fibrosis improvement, NASH resolution without worsening of fibrosis, improvement of fibrosis without worsening of NASH; NASH-CRN), compared to placebo” value in experiment [2] (lanifibranor groups) was “more favorable than placebo”.
